Test results reported in paper PMC12873548, “D-amino acid substitution and cyclization enhance the stability and antimicrobial activity of arginine-rich peptides” (Microbiology, 2026).
Converted amounts (≈) assume the structure as drawn. Residues, ends and D or L forms follow the SMILES beside them.

What was measured:
[1] = Stability in human serum by LC-MS; type: in vitro ADME; conditions: human serum (20% and 50%), 24 h, 37 °C; read-out LC-MS (ESI)
Experimental: The antimicrobial activity and structural stability of arginine-rich peptides were evaluated in the presence of human serum (20% and 50 %) and 5 µM Sequencing Grade Modified Trypsin (SGMT, Promega). Briefly, fresh human blood was collected in EDTA tubes and allowed to clot at room temperature for 1 h. Serum was then collected following centrifugation at 2,000 r.p.m. for 10 min at 4 °C. Peptides were incubated with 20%, 50% human serum and 5 µM SGMT in 50 mM Tris-HCl buffer (1 mM CaCl₂, pH 7.6) for 24 h at 37 °C. After the incubation period, the solutions were further incubated with E. coli (ATCC 25922 and O157:H7), P. aeruginosa (PA01, NCTC13437) and S. aureus (ATCC12600), and the MIC was assessed as described in the ‘Antibacterial assessment’ section. Additionally, the samples were analysed using electrospray ionization MS to monitor structural changes based on the molecular weight of the peptides.

[2] = system: E. coli; test: Live/dead SYTO 9/PI fluorescence imaging; type: cell-based, Escherichia coli; conditions: mid-log phase E. coli, 2× MIC; red = damaged membranes
[3] = system: P. aeruginosa (PAO1) biofilms; test: Disruption of pre-established biofilms, resazurin; type: cell-based, Pseudomonas aeruginosa; conditions: 48 h P. aeruginosa biofilm, peptide at 2× MIC, 18 h, 37 °C
Experimental: To establish mature P. aeruginosa (PAO1) biofilms, an overnight culture was diluted to an OD600 of 0.01 in 120 µl of M63 medium (supplemented with 1 mM MgSO₄ and 23 µM L-arginine) and incubated in flat-bottom 96-well plates at 37 °C for 48 h. Afterwards, individual wells containing biofilm were rinsed three times with PBS, and 150 µl MH broth was added with either 0.5× and 2× MIC peptides. 100 µg mL^−1 resazurin was added to measure the biofilm metabolic activity for 18 h at 37 °C using a Tecan Spark® microplate reader (λex=520 nm/λem=590 nm). c.f.u. counts were established by plating aliquots of a dilution series onto MH agar followed by overnight incubation at 37 °C. Residual biofilm biomass was subsequently quantified using 0.1% CV staining.
Three-dimensional images of biofilm communities, with and without peptide exposure, were captured using an All-in-One Fluorescence Microscope (Keyence, Japan). Pre-established biofilms in a 96-well plate were incubated with 2× MIC peptides for 3 h at 37 °C. Dual staining was performed with 5 µl of SYTO 9/PI for 30 min. Biofilm thickness was assessed through 2.0 µm optical cross-sections with 50 µm pinholes.

[4] = system: Gram-positive and Gram-negative bacteria; type: cell-based; conditions: span of MIC and MBC against both Gram-positive and Gram-negative bacteria, Table 2
Experimental: (§1) The MIC of arginine-based peptides was assessed using the microbroth dilution approach. Our in vitro screening included a panel of Gram-negative bacteria, Escherichia coli (ATCC 25922 and enterohaemorrhagic O157:H7) and Pseudomonas aeruginosa (PA01 and the drug-resistant strain NCTC 13437), and Gram-positive bacteria (Staphylococcus aureus ATCC 12600). Five-millilitre overnight cultures in Lysogeny broth, prepared from single isolated colonies, were diluted to 5×10^6 c.f.u. ml^−1 mid-log phase in Mueller–Hinton (MH) broth. Next, peptide concentrations (0 to 1 mM) were serially diluted twofold in 96-well plates and incubated overnight at 37 °C with the tested bacterial strains. In each case, the MIC was determined as the lowest peptide concentration at which no detectable bacterial growth was observed, employing an absorbance-based assay using a Tecan Spark® multimode plate reader. Subsequently, 10 µl aliquots from each peptide dilution were transferred to MH agar (1.5%) plates to determine the minimum bactericidal concentration (MBC) which was assessed by establishing at which concentration no visible growth of bacteria (assessed via colony formation) on the plate was observed.

[5] = system: E. coli ATCC 25922; test: Membrane integrity, PI uptake; type: cell-based, Escherichia coli; conditions: E. coli ATCC 25922, 5 µg ml−1 PI, 1 h
Experimental: Propidium iodide (PI) uptake was used to assess the permeabilization of the bacterial membrane upon incubation with peptides. E. coli and S. aureus cells, adjusted to an OD600 of 0.5, were placed into a 96-well plate containing 5 mM HEPES buffer (pH 7.4, supplemented with 5 mM glucose) and incubated with 5 µg ml^−1 PI for 15 min. Afterwards, different peptide concentrations were added, and PI uptake was rapidly measured every 10 min over a 1 h period using a Tecan Spark® microplate reader (λex=515 nm, λem=620 nm).

[6] = system: P. aeruginosa (PA01); test: Inhibition of biofilm formation, crystal violet; type: cell-based, Pseudomonas aeruginosa; conditions: P. aeruginosa PA01, M63 medium, peptides 0 to 500 µM, 24 h, 0.1% CV
Experimental: Arginine-rich peptides were evaluated for their ability to inhibit biofilm formation of P. aeruginosa (PA01) cells. To assess this, the procedure described in the ‘Antibacterial assessment’ section for determining the MIC was adapted using M63 media (supplemented with 1 mM MgSO4 and 23 µM L-arginine). After 24 h of exposure to peptides (0 to 1 mM), flat-bottom 96-well plates were washed twice with PBS to remove any non-adherent cells. The remaining biofilm was stained with 0.1% crystal violet (CV) for 30 min at room temperature. Subsequently, the plates were washed three times to remove excess dye and left to dry overnight at room temperature. The following day, stained biofilms were solubilized using 30% glacial acetic acid, and absorbance was measured at 550 nm using a microplate reader. Biofilm inhibition was expressed as a percentage relative to control bacterial cells treated with PBS.

[7] = system: E. coli (O157:H7); type: cell-based, Escherichia coli
Experimental: as §1

[8] = system: E. coli; test: Intracellular ROS, DCFH-DA; type: cell-based, Escherichia coli; conditions: peptides at MIC, 1/2× MIC, 1/4× MIC, 4 h, 37 °C
Experimental: Total reactive oxygen species (ROS) was measured using an oxidation-sensitive fluorescent dye, 2′,7′-dichlorodihydrofluorescein diacetate (DCFH-DA). For this assay, E. coli and S. aureus cultures were adjusted to an OD600 of 0.3 in MH broth and exposed to peptides at MIC, 1/2× MIC and 1/4× MIC, or to positive control (5 mM H2O2) for 4 h at 37 °C. Cells were centrifuged at 4,000 r.p.m. for 10 min at 4 °C and resuspended in PBS containing 10 µM DCFH-DA. The suspension was incubated under the same conditions for 30 min. Finally, cells were washed twice with PBS, and 150 µl aliquots were transferred to 96-well plates. Oxidized DCF products were detected using a Tecan Spark® microplate reader with excitation at 485 nm and emission at 530 nm. Additionally, 10 µl of E. coli cells incubated with D-R4F4 at MIC, 1/2×MIC and 1/4×MIC was collected for imaging using an All-in-One Fluorescence Microscope (Keyence, Japan).

In the case of `N=C(N)NCCC[C@@H]1NC(=O)[C@H](CCCNC(=N)N)NC(=O)[C@H](CCCNC(=N)N)NC(=O)[C@H](Cc2ccccc2)NC(=O)[C@H](Cc2ccccc2)NC(=O)[C@H](Cc2ccccc2)NC(=O)[C@H](Cc2ccccc2)NC(=O)[C@H](CCCNC(=N)N)NC1=O` [CP-R4F4] (cyclo(RRRRFFFF)), the “Stability with serum proteases (LC chromatogram and mass spectrum)” value [1] is reported as “appeared at the same retention time in both the absence and presence of proteases”, the “Membrane damage, live/dead SYTO 9/PI staining” value [2] is reported as “high presence of red-stained cells indicative of damaged membranes” and the “Disruption of mature biofilm (resazurin metabolic activity)” value [3] is reported as “significantly disrupted”. For the same compound, the “MIC and MBC values over all tested strains” value [4] was 15.62 to 250 µM, the “PI uptake, membrane integrity” value [5] was “membrane-disruptive activity” and the “Biofilm formation (biomass, crystal violet)” value [6] was “lowest levels of biofilm formation at the lower concentrations”. The MBC ([7]; 10 µl aliquots plated on MH agar, no visible colonies) was 62.5 µM (≈ 75.8 µg/mL), the MIC ([7]; MH broth, 5×10^6 cells, 24 h, 37 °C, absorbance 600 nm, triplicate) was 31.25 µM (≈ 37.9 µg/mL) and the “Intracellular ROS levels” value [8] was “highest modulation of ROS levels”.
